Entries after “also recorded” stand apart in the source; their conditions may differ. Read-outs that look alike come from different tables or passages of the source. Each block holds one compound with its values, some of them ahead of it.
What was measured:
[1] = target: human ENO1 (Homo sapiens, UniProt P06733); assay: Enolase enzymatic activity, NADH-linked pyruvate kinase/lactate dehydrogenase fluorescence assay, ENO1
[2] = target: ENO2 (Homo sapiens, UniProt P09104); assay: Enolase enzymatic activity and Michaelis-Menten kinetic analysis, ENO2; conditions: for inhibition kinetics with respect to substrate 2-PGA: SF2312: at IC50
Sequence of ENO2 (P09104 whole entry): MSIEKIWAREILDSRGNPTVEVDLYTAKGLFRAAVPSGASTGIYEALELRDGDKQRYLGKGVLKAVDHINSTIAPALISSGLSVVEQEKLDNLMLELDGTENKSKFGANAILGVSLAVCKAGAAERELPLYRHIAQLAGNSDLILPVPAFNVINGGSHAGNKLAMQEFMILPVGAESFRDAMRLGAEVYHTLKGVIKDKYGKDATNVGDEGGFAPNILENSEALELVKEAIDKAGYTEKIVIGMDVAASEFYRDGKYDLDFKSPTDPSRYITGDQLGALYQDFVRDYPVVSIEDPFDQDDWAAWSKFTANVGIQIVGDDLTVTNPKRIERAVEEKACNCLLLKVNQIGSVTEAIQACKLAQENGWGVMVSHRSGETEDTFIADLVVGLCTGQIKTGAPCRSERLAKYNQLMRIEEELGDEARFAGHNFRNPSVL

[3] = tested on: ENO1 null glioma cells (D423-MG); assay: Growth inhibition by live imaging (Incucyte) / crystal violet; type: cell-based, human; conditions: for IC50: Homo sapiens, D-423MG, 72 h, confluence over 3 days, read-out: approximate IC50 for growth inhibition of ENO1 null glioma cells
Description: (§1) Cell proliferation of glioma cell lines was assayed either through crystal violet staining or by live-cell confluence measurements with the IncuCyte (Essen BioScience). Growth curves using the IncuCyte were generated by confluence imaging every 4 hours with duplicate replicates with an initial seeding of 1500 cells/well in 96-well plates. At the indicated time point, cells were fixed with 10% formalin and stained with crystal violet. Dye extraction was performed using 10% acetic acid solution, and absorbance was read at 595 nm. Apoptotic cells were counted by staining with YO-PRO®-1 Iodide (491/509, Life Technologies, Y3603). Apoptotic cells become permeable to YO-PRO®-1 while live cells are not stained. Alternatively, Propidium Iodide was employed (Life Technologies) instead of YO-PRO. Total cell number was quantified by Hoechst 33342 (Cat# H3570 Invitrogen). Cells were seeded as 2×10^3 cells/well in 96-well plates and treated in the presence or absence of doxycycline. On the day of apoptosis survey, old media was removed and each well was filled to 100 μl with fresh media. Hoechst and YO-PRO®-1 were mixed in 1:100 PBS and 10 μl of the mixture was added in each well gently without touching the cells for a final dilution of 1:1000 from stock. Plates were then incubated at 37° C. for 2 hours. Image capture and quantification was done by High Content Screening System—Operetta (Perkin Elmer). ATP content was measured with the luciferase/luciferin CellTiter-Glo® assay. Briefly, 100 μl of CellTiter-Glo® assay media was added to 96-well plates containing 100 μl of media and cells. Lysis was achieved by the […] in the buffer and vigorous pipetting, and luminescence was determined using an Omega Luminescence Plate Reader (BMG Labtech). Results were expressed relative to vehicle treated control.
(§2) The inhibitor effects were followed live-cell confluence measurements with the IncuCyte (Essen BioScience) as we described previously (Muller et al., 2012). Growth curves using the IncuCyte were generated by confluence imaging every 2 hours with quadruplicate replicates with and initial seeding of 10^3 cells/well in 96-well plates.
(§3) At the indicated time point (usually 2 weeks), cells were fixed with 10% formalin and stained with 0.1% crystal violet solution for 1 h as described previously (Muller et al., 2012). Dye extraction was performed using 10% acetic acid solution, and absorbance was read at 595 nm.

[4] = tested on: enolase (ENO1 and ENO2); assay: Enolase inhibitory activity in vitro, isoform not distinguished (ENO1 and ENO2); type: biochemical, human
[5] = Stability in cell culture media by proton-decoupled 31P NMR
[6] = Hematocrit / hemolytic anemia after IV administration; conditions: for hematocrit after treatment (drop from 45%): 100 mg/kg IV for longer than a week; for dose at which mild hemolytic anemia can be observed: as low as
Description: Erythrocytes are sensitive to disruptions in the glycolytic cycle as glycolysis is the cell's only source of energy in the form of ATP.

[7] = tested on: ENO1 deleted glioma cells in neurospheres; assay: Cell viability in 3 dimensional neurosphere conditions (tetramethylrhodamine); type: cell-based, human
Description: The cellular viability studies of 3-dimensional tumospheres was performed by using the vital dye, tetramethylrhomdamine ethyl ester (TMRE). […] For reference, a brightfield picture was also taken.
To more accurately model tumors, glioma cells were grown in 3 dimensional neurosphere conditions. The surface to volume ratio of the neurosphere was considerably smaller than in convention cell culture conditions and as such, compounds with poor cell penetration such as phosphonates have considerably lower efficacy than in conventional cell culture. […] However, under the same conditions, the cell permeable pro-drug, Pom-Hex, was highly toxic to ENO1 deleted glioma cells (FIG. 10B). Cell viability in spheres was monitored using 100 nM of tetramethylrhodamine, which is actively taken up by live but not dead cells.

[8] = tested on: ATP levels in D423 ENO1-deleted glioma cells; assay: ATP content (CellTiter-Glo); type: cell-based, human; conditions: 8 hours of treatment
Description: as §1

[9] = tested on: conversion of 13C-glucose to 13C-lactate in D423 ENO1-deleted glioma cells; assay: 13C-NMR tracing of uniformly labeled 13C-glucose to 13C-lactate; conditions: 48 hours, 10 mM 13C-uniformly labeled glucose
[10] = tested on: cell lines heterozygously deleted for ENO1; assay: Sensitivity under conventional growth conditions, ENO1 heterozygous lines; type: cell-based, human
Description: as §2, §3

[11] = tested on: normal human astrocytes; assay: Sensitivity under conventional growth conditions, normal cells; type: cell-based
Description: as §2, §3

[12] = tested on: ENO1 deleted Glioblastoma cell line, Gli56; assay: Intracranial Gli56 glioblastoma tumors tracked by T2 MRI; type: in vivo, NUDE immunocompromised mice; conditions: Pom-SF2312 at 4 MPK
Description: Animals (NUDE immunocompromised mice) injected intracranially with the ENO1 deleted Glioblastoma cell line, Gli56. After 30 days, tumors became readily visible by MRI (T2, the white hyperintense regions are tumor on the background grey of the normal brain). In the absence of treatment, Gli56 tumors grow continuously (Mouse #1, and Mouse #3, from Day 30 to Day 40). […] The tumors have not recurred after discontinuation of treatment.

[13] = physchem
[14] = tested on: D423-MG glioma cells (1p36 deletion spanning ENO1); assay: Intracranial D423-MG glioma tumors tracked by T2 MRI; type: in vivo, Nude mice; conditions: 10 mg/kg intravenous for 11 days
Description: Nude mice were injected with D423-MG glioma cells which carry the 1p36 deletion spanning ENO1. Tumors formed around 30 days post injection and growth was tracked non-invasively by T2 MRI. In the absence of treatment, tumors grew continuously, ultimately killing the animal. The tumor area (right side of the brain) is distinguished from the normal mouse brain by high contrast. MRI measurements were performed in a 4.7 T Biospec USR47/40 (Bruker Biospin MRI, Billerica, Mass.) at the M. D. Anderson small animal imaging facility (SAIF). Briefly, animals were maintained under deep anesthesia with isoflurane with body temperature maintained by a heating blanket. Anesthetized mice were restrained with the head held in a stereotactic holder. Breathing was monitored and synchronized with the instrument. Routine tumor detection was done by T2-weighed imaging. First, a low resolution axial scan is taken to center the field properly, after which a series of high resolution axial and coronal scans are recorded.
Nude mice were injected with D423-MG glioma cells which carry the 1p36 deletion spanning ENO1. Tumors formed around 30 days post injection and growth was tracked non-invasively by T2 MRI. In the absence of treatment, tumors grew continuously, ultimately killing the animal. The tumor area (right side of the brain) was distinguished from the normal mouse brain by high contrast. […]

[15] = tested on: VHL deleted kidney cancer cell lines RCC4 and 786-O; assay: Live growth imaging (Incucyte) of VHL deleted vs VHL rescued kidney cancer cells; type: cell-based, human
Description: as §2
VHL is a common event in renal clear cell carcinoma. Deletion of VHL activates the HIF pathway, suppressing respiration and rendering cancer cells highly dependent on glycolysis. As such, efforts have been made to target glycolysis to achieve selective toxicity to VHL deficient kidney cancer. As such, the enolase inhibitor Pom-Hex was tested in VHL deteted kidney cancer cell lines. In two independent VHL deleted kidney cancer cell lines, RCC4 (bottom) and 786-O (top panel), the enolase inhibitor, Pom-Hex, was 4-8 times more toxic to the VHL deleted (upper), compared to isogenic rescued controls, expressing VHL from an ectopic locus (lower panels, italics). As in FIG. 12, growth in response to increasing doses of Pom-Hex was measured by live growth imaging using the Incucyte.

[16] = Maximum tolerated dose; set-up: species or system NUDE immunocompromised mice; conditions: mouse, in vivo
[17] = up to 10 mM, lysates of D423 ENO1 and ENO2 expressing cells

Sequence of human ENO1 (P06733 whole entry): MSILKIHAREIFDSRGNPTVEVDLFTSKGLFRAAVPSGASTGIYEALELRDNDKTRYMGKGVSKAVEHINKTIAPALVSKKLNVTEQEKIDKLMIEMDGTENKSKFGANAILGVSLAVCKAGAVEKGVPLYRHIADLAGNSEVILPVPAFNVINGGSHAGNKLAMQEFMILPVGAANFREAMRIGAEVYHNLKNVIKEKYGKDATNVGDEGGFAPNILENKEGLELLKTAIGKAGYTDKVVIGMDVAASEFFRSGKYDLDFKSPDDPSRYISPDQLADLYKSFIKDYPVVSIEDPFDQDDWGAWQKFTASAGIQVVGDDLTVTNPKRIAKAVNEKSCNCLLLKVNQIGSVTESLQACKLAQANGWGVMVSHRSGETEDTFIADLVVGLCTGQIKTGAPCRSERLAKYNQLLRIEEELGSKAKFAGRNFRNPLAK

Structure (SMILES): O=C1C(P(=O)(O)O)CCN1O (stereo not shown) [Deoxy-SF2312]
IC50 [1]: ~2000 nM
IC50 [2]: ~2000 nM
inhibition kinetics with respect to substrate 2-PGA [2]: clear competitive kinetics

Structure (SMILES): CC(=O)OC1CC(P(=O)(OCOC(=O)C(C)(C)C)OCOC(=O)C(C)(C)C)C(=O)N1OC(C)=O (stereo not shown) [Diacetyl-POM-SF2312, (((1,5-diacetoxy-2-oxopyrrolidin-3-yl)phosphoryl)bis(oxy))bis(methylene) bis(2,2-dimethylpropanoate)]
IC50 [3]: ~150 nM

enolase inhibitory activity [4, 17]: no enolase inhibitory activity
enolase inhibitory activity ([4]; up to 10 mM, lysates of D423 ENO1 and ENO2 expressing cells, listed as foscanet): no inhibitory activity was observed
Structure (SMILES): O=C(O)P(=O)(O)O [Foscarnet]

enolase inhibitory activity [4, 17]: no enolase inhibitory activity
enolase inhibitory activity ([4]; up to 10 mM, lysates of D423 ENO1 and ENO2 expressing cells, listed as fosfomycin): no inhibitory activity was observed
Structure (SMILES): C[C@@H]1O[C@@H]1P(=O)(O)O [Fosfomycin]

enolase inhibitory activity ([4]; even concentrations of >10,000,000 nM): completely inactive
Structure (SMILES): O=CN(O)CCCP(=O)(O)O [Fosmidomycin]
enolase inhibitory activity [4, 17]: no enolase inhibitory activity; also recorded: no inhibitory activity was observed

hydrolysis to SF2312 in media ([5]; within 24 hours): did not appreciably hydrolyze
Structure (SMILES): CC(C)(C)C(=O)OCOP(=O)(O)C1CC(O)N(O)C1=O (stereo not shown) [Hemi-Pom-SF2312]

Structure (SMILES): O=C1C(P(=O)(O)O)CCCN1O (stereo not shown) [Hex]
hematocrit after treatment (drop from 45%) [6]: 29%
dose at which mild hemolytic anemia can be observed [6]: 50 mg/kg
toxicity to ENO1 deleted glioma cells in neurosphere conditions [7]: only mildly sensitive
potency against ENO2 versus ENO1 (IC50 lower / activity greater for ENO2) ([2]; ENO2 over ENO1): approximately 6 fold
Ki for ENO2 compared with ENO1 ([2]; Lineweaver-Burke / Dixon plots): considerably lower Ki for ENO2 than ENO1
inhibition kinetics with respect to substrate 2-PGA [2]: competitive inhibitor

Structure (SMILES): O=C(CP(=O)(O)O)NO [PhAH, phosphonoacetohydroxamate]
IC50 [1]: ~20 nM
concentration reducing ATP levels by >40% [8]: > 100 µM
hematocrit after treatment (drop from 45%) [6]: 29%
dose at which mild hemolytic anemia can be observed [6]: 50 mg/kg
concentration sufficient to decrease the ratio of 13C Lactate/13C glucose by 70% [9]: 50 µM
IC50 [2]: ~20 nM

Structure (SMILES): CC(C)(C)C(=O)OCOP(=O)(OCOC(=O)C(C)(C)C)C1CCCN(O)C1=O (stereo not shown) [Pom-Hex]
sensitivity of cell lines heterozygously deleted for ENO1 [10]: intermediate sensitivity
sensitivity of normal human astrocytes [11]: highly resistant
IC50 [3]: ~35 nM
sensitivity of ENO1 deleted D423 glioma cells ([3]; conventional growth conditions): sensitive to even low nM levels of the inhibitor
further hydrolysis to the free phosphonate (SF2312, Hex) ([5]; 72 hours of incubation): did not proceed further
time for half of the compound to hydrolyze in media ([5]; DMEM with 10% fetal bovine serum): more than 24 hours
effect on hematocrit ([6]; doses as high as 10 mg/kg IV for up to 1 month): do not cause a statistically significant drop in hematocrit
effect on Gli56 intracranial tumor growth [12]: profound tumor regression
IC50 ([4]; against ENO1 and ENO2, incubated prior to 5 mM 2-PG, contaminant Hex not ruled out): ~100 µM
toxicity to ENO1 deleted glioma cells in neurosphere conditions [7]: highly toxic
fold more potent than Hex ([7]; FIGS. 10A & 10B, ENO1-deleted glioma cells): ≥ 200 fold
half-life at 1.5 mM [13]: 2160 min
effect on D423-MG intracranial tumor [14]: completely eradicated the tumor
times more toxic to VHL deleted compared to isogenic rescued controls [15]: 4-8 times

Structure (SMILES): CC(C)(C)C(=O)OCOP(=O)(OCOC(=O)C(C)(C)C)C1CC(O)N(O)C1=O (stereo not shown) [Pom-SF2312, (((1,5-dihydroxy-2-oxopyrrolidin-3-yl)phosphoryl)bis(oxy))bis(methylene)bis(2,2-dimethylpropanoate)]
IC50 [3]: < 75 nM
maximum tolerated dose [16]: 4 MPK (mg/kg)
half-life at 1.5 mM ([13]; cell culture media): 480 min
